Source: patent publication US12344600B2, “c-Myc mRNA translation modulators and uses thereof in the treatment of cancer” (Anima Biotech Inc., priority 2022, dated 2025)

System: c-Myc
Test: c-Myc immunofluorescence assay
Type: cell-based, human
Conditions: A549 cells, 24 hours, anti-c-Myc immunofluorescence
Protocol: A549 human non-small cell lung carcinoma cells were treated for 24 hours with increasing compound concentration, cells were fixed and stained with a nuclei stain (DAPI) and anti-c-Myc fluorescent antibody. The c-Myc signal was quantified by image analysis, and data was exported and analyzed using TIBCO Spotfire® (TIBCO Corporation). Dose response curves were generated and fitted with logaristic regression to calculate potency (EC50 values). Potency values are presented in Table 2 for all compounds and are shown for selected compounds (FIG. 3).
A549 cells were grown in 384-wells plates (Perkin Elmer, Cat. 6057300) for 48 hours, treated with compounds and then fixed for 20 min in 4% paraformaldehyde. After that permeabilization was done using 0.1% Triton X-100 in PBS for 20 min. Primary anti-c-Myc antibody (Abcam, ab32072) staining was performed for 90 min at room temperature. Cells then were washed twice with PBS and incubated with secondary antibody (Abcam, ab150075) for 90 min at room temperature. Nuclei were stained with DAPI for 10 min and washed twice with PBS.
Cell images were taken with Operetta (Perkin Elmer, USA), a wide-field fluorescence microscope at 20× magnification. After acquisition, the images were transferred to Columbus software (Perkin-Elmer) for image analysis. In Columbus, cells were identified by their nucleus, using the “Find Nuceli” module and cytoplasm was detected based on the secondary antibody channel. Subsequently, the fluorescent signal was enumerated in the identified cell region. Then data was exported to a data analysis and visualization software, Tibco Spotfire, USA.

CN1CCC[C@H](CN2CC[C@@H](CNC(=O)C3CCN(c4nc(-c5ccc(Cl)cc5)no4)CC3)C2)C1 (single isomer, unassigned) [Compound 470]
Myc Efficacy (−LogEC50): ++ (++ ≥5 and <6)

CN1CCC[C@H](CN2CC[C@H](CNC(=O)C3CCN(c4nc(-c5ccc(Cl)cc5)no4)CC3)C2)C1 (single isomer, unassigned) [Compound 471]
Myc Efficacy (−LogEC50): ++ (++ ≥5 and <6)

COc1ccc(-c2noc(N3CCC(C(=O)NCCCN4CCCCC4)CC3)n2)cc1 [Compound 101, 1-(3-(4-methoxyphenyl)-1,2,4-oxadiazol-5-yl)-N-(3-(piperidin-1-yl)propyl)piperidine-4-carboxamide]
Myc Efficacy (−LogEC50): + (+ >3 and <5)

CCCCN(CC)CCCNC(=O)C1CCN(c2nc(-c3ccc(OC)cc3)no2)CC1 [Compound 102, N-(3-(butyl(ethyl)amino)propyl)-1-(3-(4-methoxyphenyl)-1,2,4-oxadiazol-5-yl)piperidine-4-carboxamide]
Myc Efficacy (−LogEC50): + (+ >3 and <5)

CCc1ccc(CNC(=O)C2CCN(c3nc(-c4ccc(Cl)cc4)no3)CC2)cc1 [Compound 103, 1-(3-(4-chlorophenyl)-1,2,4-oxadiazol-5-yl)-N-(4-ethylbenzyl)piperidine-4-carboxamide]
Myc Efficacy (−LogEC50): + (+ >3 and <5)

CCCN1CCN(C(=O)C2CCN(c3nc(-c4ccc(OC)cc4)no3)CC2)CC1 [Compound 104, (1-(3-(4-methoxyphenyl)-1,2,4-oxadiazol-5-yl)piperidin-4-yl)(4-propylpiperazin-1-yl)methanone]
Myc Efficacy (−LogEC50): + (+ >3 and <5)

COc1ccc(-c2noc(N3CCC(C(=O)NCC4CCN(Cc5ccc(C)cc5)C4)CC3)n2)cc1 (stereo not drawn) [Compound 105, 1-(3-(4-methoxyphenyl)-1,2,4-oxadiazol-5-yl)-N-((1-(4-methylbenzyl)pyrrolidin-3-yl)methyl)piperidine-4-carboxamide]
Myc Efficacy (−LogEC50): ++ (++ ≥5 and <6)

COc1ccc(-c2noc(N3CCC(C(=O)NC[C@H]4CCN(Cc5ccc(C)cc5)C4)CC3)n2)cc1 [Compound 106, (R)-1-(3-(4-methoxyphenyl)-1,2,4-oxadiazol-5-yl)-N-((1-(4-methylbenzyl)pyrrolidin-3-yl)methyl)piperidine-4-carboxamide]
Myc Efficacy (−LogEC50): ++ (++ ≥5 and <6)

COc1ccc(-c2noc(N3CCC(C(=O)NC[C@@H]4CCN(Cc5ccc(C)cc5)C4)CC3)n2)cc1 [Compound 107, (S)-1-(3-(4-methoxyphenyl)-1,2,4-oxadiazol-5-yl)-N-((1-(4-methylbenzyl)pyrrolidin-3-yl)methyl)piperidine-4-carboxamide]
Myc Efficacy (−LogEC50): + (+ >3 and <5)

COc1ccc(-c2noc(N3CCC(C(=O)N4CCCC4)CC3)n2)cc1 [Compound 109, (1-(3-(4-methoxyphenyl)-1,2,4-oxadiazol-5-yl)piperidin-4-yl)(pyrrolidin-1-yl)methanone]
Myc Efficacy (−LogEC50): + (+ >3 and <5)

COc1ccc(-c2noc(N3CCC(C(=O)N4CCC(C)CC4)CC3)n2)cc1 [Compound 110, (1-(3-(4-methoxyphenyl)-1,2,4-oxadiazol-5-yl)piperidin-4-yl)(4-methylpiperidin-1-yl)methanone]
Myc Efficacy (−LogEC50): + (+ >3 and <5)

COc1ccc(-c2noc(N3CCC(C(=O)NCCN(C)C)CC3)n2)cc1 [Compound 111, N-(2-(dimethylamino)ethyl)-1-(3-(4-methoxyphenyl)-1,2,4-oxadiazol-5-yl)piperidine-4-carboxamide]
Myc Efficacy (−LogEC50): + (+ >3 and <5)

COCCCNC(=O)C1CCN(c2nc(-c3ccc(OC)cc3)no2)CC1 [Compound 112, 1-(3-(4-methoxyphenyl)-1,2,4-oxadiazol-5-yl)-N-(3-methoxypropyl)piperidine-4-carboxamide]
Myc Efficacy (−LogEC50): + (+ >3 and <5)

CCN(CC)CCCNC(=O)C1CCN(c2nc(-c3ccc(OC)cc3)no2)CC1 [Compound 113, N-(3-(diethylamino)propyl)-1-(3-(4-methoxyphenyl)-1,2,4-oxadiazol-5-yl)piperidine-4-carboxamide]
Myc Efficacy (−LogEC50): + (+ >3 and <5)

CCN(CC)CCNC(=O)C1CCN(c2nc(-c3ccc(OC)cc3)no2)CC1 [Compound 114, N-(2-(diethylamino)ethyl)-1-(3-(4-methoxyphenyl)-1,2,4-oxadiazol-5-yl)piperidine-4-carboxamide]
Myc Efficacy (−LogEC50): + (+ >3 and <5)

COc1ccc(-c2noc(N3CCC(C(=O)NCc4ccccn4)CC3)n2)cc1 [Compound 115, 1-(3-(4-methoxyphenyl)-1,2,4-oxadiazol-5-yl)-N-(pyridin-2-ylmethyl)piperidine-4-carboxamide]
Myc Efficacy (−LogEC50): − (− ≤3)

COc1ccc(-c2noc(N3CCC(C(=O)NCc4cccnc4)CC3)n2)cc1 [Compound 116, 1-(3-(4-methoxyphenyl)-1,2,4-oxadiazol-5-yl)-N-(pyridin-3-ylmethyl)piperidine-4-carboxamide]
Myc Efficacy (−LogEC50): + (+ >3 and <5)

COc1ccc(-c2noc(N3CCC(C(=O)NCCCN4CCN(C)CC4)CC3)n2)cc1 [Compound 117, 1-(3-(4-methoxyphenyl)-1,2,4-oxadiazol-5-yl)-N-(3-(4-methylpiperazin-1-yl)propyl)piperidine-4-carboxamide]
Myc Efficacy (−LogEC50): + (+ >3 and <5)

CCCCN(CC)CCNC(=O)C1CCN(c2nc(-c3ccc(OC)cc3)no2)CC1 [Compound 119, N-(2-(butyl(ethyl)amino)ethyl)-1-(3-(4-methoxyphenyl)-1,2,4-oxadiazol-5-yl)piperidine-4-carboxamide]
Myc Efficacy (−LogEC50): + (+ >3 and <5)

COc1ccc(-c2noc(N3CCC(C(=O)NCc4cccs4)CC3)n2)cc1 [Compound 120, 1-(3-(4-methoxyphenyl)-1,2,4-oxadiazol-5-yl)-N-(thiophen-2-ylmethyl)piperidine-4-carboxamide]
Myc Efficacy (−LogEC50): + (+ >3 and <5)

COc1ccc(-c2noc(N3CCC(C(=O)NCc4cccc(OC)c4)CC3)n2)cc1 [Compound 121, N-(3-methoxybenzyl)-1-(3-(4-methoxyphenyl)-1,2,4-oxadiazol-5-yl)piperidine-4-carboxamide]
Myc Efficacy (−LogEC50): + (+ >3 and <5)

COc1ccc(-c2noc(N3CCC(C(=O)NCc4cccc(Cl)c4)CC3)n2)cc1 [Compound 122, N-(3-chlorobenzyl)-1-(3-(4-methoxyphenyl)-1,2,4-oxadiazol-5-yl)piperidine-4-carboxamide]
Myc Efficacy (−LogEC50): + (+ >3 and <5)

COc1ccc(-c2noc(N3CCC(C(=O)NCc4ccc(Cl)cc4)CC3)n2)cc1 [Compound 123, N-(4-chlorobenzyl)-1-(3-(4-methoxyphenyl)-1,2,4-oxadiazol-5-yl)piperidine-4-carboxamide]
Myc Efficacy (−LogEC50): + (+ >3 and <5)

COc1ccc(-c2noc(N3CCC(C(=O)NCCCN4CCCC(C)C4)CC3)n2)cc1 (stereo not drawn) [Compound 124, 1-(3-(4-methoxyphenyl)-1,2,4-oxadiazol-5-yl)-N-(3-(3-methylpiperidin-1-yl)propyl)piperidine-4-carboxamide]
Myc Efficacy (−LogEC50): + (+ >3 and <5)

COc1ccc(-c2noc(NCCCN3CCC(Cc4ccccc4)CC3)n2)cc1 [Compound 125, N-(3-(4-benzylpiperidin-1-yl)propyl)-3-(4-methoxyphenyl)-1,2,4-oxadiazol-5-amine]
Myc Efficacy (−LogEC50): + (+ >3 and <5)

CCc1ccc(CNC(=O)C2CCN(c3nc(-c4ccc(OC)cc4)no3)CC2)cc1 [Compound 126, N-(4-ethylbenzyl)-1-(3-(4-methoxyphenyl)-1,2,4-oxadiazol-5-yl)piperidine-4-carboxamide]
Myc Efficacy (−LogEC50): + (+ >3 and <5)

CCCNC(=O)C1CCN(c2nc(-c3ccc(OC)cc3)no2)CC1 [Compound 127, 1-(3-(4-methoxyphenyl)-1,2,4-oxadiazol-5-yl)-N-propylpiperidine-4-carboxamide]
Myc Efficacy (−LogEC50): + (+ >3 and <5)

COc1ccc(-c2noc(N3CCC(C(=O)NCCc4ccccc4)CC3)n2)cc1 [Compound 128, 1-(3-(4-methoxyphenyl)-1,2,4-oxadiazol-5-yl)-N-phenethylpiperidine-4-carboxamide]
Myc Efficacy (−LogEC50): + (+ >3 and <5)

COc1ccc(-c2noc(N3CCC(C(=O)NCCCc4ccccc4)CC3)n2)cc1 [Compound 129, 1-(3-(4-methoxyphenyl)-1,2,4-oxadiazol-5-yl)-N-(3-phenylpropyl)piperidine-4-carboxamide]
Myc Efficacy (−LogEC50): + (+ >3 and <5)

COc1ccc(-c2noc(N3CCC(C(=O)NCCCN(C)c4ccccc4)CC3)n2)cc1 [Compound 130, 1-(3-(4-methoxyphenyl)-1,2,4-oxadiazol-5-yl)-N-(3-(methyl(phenyl)amino)propyl)piperidine-4-carboxamide]
Myc Efficacy (−LogEC50): + (+ >3 and <5)

O=C(C1CCN(c2nc(-c3ccccc3)no2)CC1)N1CCN(Cc2ccccc2)CC1 [Compound 131, (4-benzylpiperazin-1-yl)(1-(3-phenyl-1,2,4-oxadiazol-5-yl)piperidin-4-yl)methanone]
Myc Efficacy (−LogEC50): + (+ >3 and <5)

CC1CCCN(CCCNC(=O)C2CCN(c3nc(-c4ccc(Cl)cc4)no3)CC2)C1 (stereo not drawn) [Compound 132, 1-(3-(4-chlorophenyl)-1,2,4-oxadiazol-5-yl)-N-(3-(3-methylpiperidin-1-yl)propyl)piperidine-4-carboxamide]
Myc Efficacy (−LogEC50): + (+ >3 and <5)

COc1ccc(CNC(=O)C2CCN(c3nc(-c4ccc(C(C)C)cc4)no3)CC2)cc1 [Compound 133, 1-(3-(4-isopropylphenyl)-1,2,4-oxadiazol-5-yl)-N-(4-methoxybenzyl)piperidine-4-carboxamide]
Myc Efficacy (−LogEC50): + (+ >3 and <5)
